Source: patent US20100120867A1, “METHOD OF TREATMENT” (Novartis AG, priority 2007, published 2010)

Assay: Multicenter, double-blind, randomized, placebo-controlled clinical study in subjects with frequent heartburn
Assay type: in vivo, human
Method: A multicenter, double-blind, randomized, parallel group, placebo-controlled clinical study is carried out to investigate the safety and efficacy of lansoprazole, 15 mg (or alternatively 30 mg) once daily, in preventing frequent heartburn.
The trial population consists of subjects (male or female, at least 18 years old) with frequent heartburn, i.e. heartburn occurring a minimum of 2 or more days a week over the past month, that was untreated. A total of 576 subjects with frequent heartburn (288 per group) is randomized in order to yield 546 subjects.
The study population is divided equally between a treatment group receiving lansoprazole capsules, 15 mg (or alternatively, 30 mg) and a control group receiving placebo capsules. All statistical tests used to compare the two treatment groups are two-sided, with probability of Type I error=0.05.
Lansoprazole 15 mg (or alternatively, 30 mg) capsules or placebo are taken once daily for 14 days during the double blind treatment period.
Most measures of efficacy are derived from data recorded in the subject's IVRS diary after a daily self-assessment. Subjects are given instructions to complete the IVRS diary in the morning for the previous 24-hour period on a daily basis for all phases of the study. The diary is designed to collect information on the occurrence of daytime and nighttime heartburn episodes, maximum heartburn severity, and rescue medication consumption for the previous 24 hours. In addition, the date and time of study medication consumption are recorded.
To classify heartburn severity, subjects are instructed to use the most intense episode of the 24-hour period according to the following Intensity Scale Definitions (Table 6):
Therefore, the primary evaluation is the period between the first dose (Day 1) through the end of the double blind treatment period, i.e. Days 1-14 for 24-hour days. “No heartburn over 24 hours” on each of Days 1-14 is defined as the combined experience of daytime and nighttime heartburn. […]
This variable is analyzed as the percentage of nighttimes with the outcome of no nighttime heartburn. […]

[1] = 14-day course of therapy, randomized treatment group

Structure (SMILES): Cc1c(OCC(F)(F)F)ccnc1C[S+]([O-])c1nc2ccccc2[nH]1 (stereo not drawn) [Lansoprazole]
- efficacy in the relief of frequent heartburn compared to placebo (15 mg once daily, 14 days): superior in efficacy to placebo
- proportion of 24-hour days substantially free of heartburn compared to placebo [1]: statistically significant increase
- proportion of nighttimes substantially free of heartburn compared to placebo [1]: statistically significant increase
